According to PMC12581733, “Microbial Transglutaminase Increases Uptake and Translocation of Gliadin Peptides in the Human Intestinal Epithelium” (Molecular Nutrition & Food Research, 2025):

T1: TG2 (Homo sapiens, UniProt P21980)
T1 construct: purchased Zedira T022
T1 sequence (P21980 1-687): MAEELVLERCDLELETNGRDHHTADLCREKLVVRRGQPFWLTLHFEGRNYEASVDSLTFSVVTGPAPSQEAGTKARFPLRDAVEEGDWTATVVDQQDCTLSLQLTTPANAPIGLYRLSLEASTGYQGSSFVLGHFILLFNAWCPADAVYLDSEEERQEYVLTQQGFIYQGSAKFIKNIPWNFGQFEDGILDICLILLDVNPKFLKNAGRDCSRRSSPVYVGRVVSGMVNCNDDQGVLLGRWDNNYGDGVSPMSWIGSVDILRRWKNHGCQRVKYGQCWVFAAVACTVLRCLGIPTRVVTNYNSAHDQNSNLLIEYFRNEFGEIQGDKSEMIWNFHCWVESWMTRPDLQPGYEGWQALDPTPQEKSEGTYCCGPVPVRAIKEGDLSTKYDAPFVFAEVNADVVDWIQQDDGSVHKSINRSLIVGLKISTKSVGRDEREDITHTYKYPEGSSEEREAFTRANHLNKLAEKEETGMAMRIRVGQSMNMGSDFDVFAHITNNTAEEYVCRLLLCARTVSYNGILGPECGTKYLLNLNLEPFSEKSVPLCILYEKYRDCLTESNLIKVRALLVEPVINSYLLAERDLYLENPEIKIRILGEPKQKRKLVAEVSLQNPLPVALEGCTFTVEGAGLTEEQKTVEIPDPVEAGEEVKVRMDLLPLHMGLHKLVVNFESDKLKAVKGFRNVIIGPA

B1: TG2: transglutaminase 2 (T022, Zedira) (protein, UniProt P21980 2-687, looked up)
Protein-glutamine …: AEELVLERCDLELETNGRDHHTADLCREKLVVRRGQPFWLTLHFEGRNYEASVDSLTFSVVTGPAPSQEAGTKARFPLRDAVEEGDWTATVVDQQDCTLSLQLTTPANAPIGLYRLSLEASTGYQGSSFVLGHFILLFNAWCPADAVYLDSEEERQEYVLTQQGFIYQGSAKFIKNIPWNFGQFEDGILDICLILLDVNPKFLKNAGRDCSRRSSPVYVGRVVSGMVNCNDDQGVLLGRWDNNYGDGVSPMSWIGSVDILRRWKNHGCQRVKYGQCWVFAAVACTVLRCLGIPTRVVTNYNSAHDQNSNLLIEYFRNEFGEIQGDKSEMIWNFHCWVESWMTRPDLQPGYEGWQALDPTPQEKSEGTYCCGPVPVRAIKEGDLSTKYDAPFVFAEVNADVVDWIQQDDGSVHKSINRSLIVGLKISTKSVGRDEREDITHTYKYPEGSSEEREAFTRANHLNKLAEKEETGMAMRIRVGQSMNMGSDFDVFAHITNNTAEEYVCRLLLCARTVSYNGILGPECGTKYLLNLNLEPFSEKSVPLCILYEKYRDCLTESNLIKVRALLVEPVINSYLLAERDLYLENPEIKIRILGEPKQKRKLVAEVSLQNPLPVALEGCTFTVEGAGLTEEQKTVEIPDPVEAGEEVKVRMDLLPLHMGLHKLVVNFESDKLKAVKGFRNVIIGPA

What was measured:
TG2 [1] = biological target: T1, TG2; assay: In vitro transamidation (crosslinking) of gliadin peptides, indirect ELISA, TG2; assay type: biochemical; settings: inhibitor 100 µM, Fig. 1A
Protocol: TG2 (10 nM, T022, Zedira, Darmstadt, Germany) or mTG (10 nM, T001, Zedira) were immobilized on a 96‐well plate (Sarstedt, Nümbrecht, Germany) in 50 mM Tris, 1 mM ethylenediamine tetraacetic acid (EDTA), 5 mM calcium chloride (pH 7.5) buffer containing 10 mM dithiotreitol (DTT, Merck KGaA, Darmstadt, Germany). After blocking with 2% bovine serum albumin (BSA, Carl Roth GmbH, Karlsruhe, Germany), the transglutaminase inhibitors ERW1041 (5095220001, Sigma–Aldrich, Darmstadt, Germany) and mTG‐blocker (C102, Zedira, each 100 µM) were applied according to protocol. Immobilized transglutaminases were incubated with biotin‐conjugated gliadin peptides or pepsin/trypsin digested gliadin (PTG, Table 2). Detection of crosslinked biotinylated gliadin peptides and PTG was done using horseradish peroxidase (HRP)‐conjugated streptavidin (1:2500, 405210, Biolegend, San Diego, CA, USA) or a specific gliadin antibody (1:1000, clone XGY4, Zedira) and the corresponding secondary HRP‐conjugated antibody (1:1000; sc‐516102, Santa Cruz Biotechnology, Dallas, TX, USA). The HRP‐substrate tetramethylbenzidine (TMB, T0440, Sigma–Aldrich, Darmstadt, Germany) was added, and photometric quantitation at 655 nm was performed after 15 min using a Clariostar Plus microplate reader (BMG Labtech, Ortenberg, Germany).

TG2 [2] = biological target: T1, TG2; assay: Extracellular crosslinking of 5BP to the Caco-2 cell surface by TG2; assay type: cell-based; settings: 5BP 500 µM, TG2 100 nM, 1 h; dose-dependent; fluorometry and confocal microscopy
Protocol: Confluent Caco‐2 cell monolayers were incubated with the transglutaminase substrate EZ‐link pentylamine‐biotin (5‐biotinamidopentylamine [5BP], 500 µM, 21345, Thermo Fisher Scientific) with or without mTG or TG2 (100 nM) in Tris buffer for 1 h. Corresponding transglutaminase inhibitors ERW1041 and mTG‐blocker were added to the solution at the indicated concentration. After fixation with 4% paraformaldehyde and blocking with 5% BSA, cells were incubated with streptavidin‐Alexa Fluor488 (S11223, 4 µg/mL, Thermo Fisher Scientific). Fluorometric quantitation was conducted using a FLUOstar Optima microplate reader (BMG Labtech, Ortenberg, Germany). For immunofluorescence microscopy, nuclei were stained with Hoechst dye (1:1000 in PBS, 44442, Thermo Fisher Scientific) for 10 min. Microscopy was done using a confocal laser scanning microscope (TE2000‐E, Nikon) and 20x Plan Apo […] objective. Image processing and quantitation were performed using ImageJ [32].

TG2 [3] = biological target: T1, TG2; assay: Immunoblot of gliadin-transglutaminase complexes; assay type: biochemical; settings: TG2 1 µM, ERW1041 100 µM, 30 min, 37°C, n = 3
Protocol: TG2 or mTG (1 µM) was incubated with gliadin peptides (Table 2) with or without ERW1041 as TG2 blocker or the mTG‐blocker (100 µM) in Tris buffer. Biotinylated gliadin peptides or PTG was added to the solution at the indicated concentrations, and incubation was performed for 30 min at 37°C. The reaction was stopped by placing the samples on ice. Detailed description of the conditions for electrophoresis and blotting have been published elsewhere. After blocking the membrane for 1 h with 5% nonfat dry milk in phosphate buffered saline (PBS) + 2.5% tween, incubation with the primary antibody was performed at 4°C overnight (Table 3). The next day, incubation with the corresponding HRP‐conjugated secondary antibody was done. The crosslinking of biotinylated gliadin peptides was detected by streptavidin‐HRP alone. Visualization was done with the Super‐Signal West Femto kit (34096, Thermo Fisher Scientific, Langenselbold, Germany) for 5 min. Image processing and quantitation were performed using a ChemiDoc XRS+ imager and Image Lab software (BioRad Laboratories, Feldkirchen, Germany).

Caco‐2 cells [4] = settings: inhibitor 100 µM, TG2 100 nM, biotinylated P56-88 and P31-49; fluorometry
Caco‐2 cells [5] = settings: inhibitor 100 µM, TG2 100 nM; immunofluorescence microscopy
Caco‐2 cells [6] = assay: Cell viability, PrestoBlue HS assay; assay type: cell-based, human; settings: used concentrations, 24 hours in culture medium; PrestoBlue HS 2 hours; Figure S1
Protocol: The effect of transglutaminases on the viability of Caco‐2 cells was investigated using the resazurin‐based PrestoBlue HS assay (P50200, Thermo Fisher Scientific) as described elsewhere. Details are provided in the Supporting Information.
Cells were incubated with mTG or TG2 at the indicated concentrations for 24 hours in culture medium. Incubation with PrestoBlue HS, diluted 1:10 in medium was performed for 2 hours at 37°C. Fluorometric examination was conducted using a Clariostar Plus microplate reader.

Molecule | Effect of inhibitor on TG2-mediated crosslinking of PTG (TG2 [1]) | Effect of inhibitor on TG2-mediated crosslinking of 5BP to the cell surface (TG2 [2]) | Effect of inhibitor on transamidation of gliadin peptides to TG2 (TG2 [3]) | Effect of inhibitor on TG2-mediated gliadin peptide uptake (Caco‐2 cells [4]) | Effect of inhibitor on TG2-enhanced cellular uptake of P56-88 (Caco‐2 cells [5]) | Effect on cell viability (Caco‐2 cells [6])
O=C(NC[C@@H]1CC(Br)=NO1)[C@@H]1CCCN1C(=O)OCc1cnc2ccccc2c1 [ERW1041] | significantly reduced crosslinking of PTG | reduced crosslinking of 5BP | significantly reduced transamidation of all gliadin peptides to TG2 | to the baseline level | reduced cellular peptide uptake to the baseline level | –
B1 | – | – | – | – | – | did not affect cell viability
